Experimental data taken from ChEMBL document CHEMBL1126577, “Studies of the synthesis, immunology, and cytotoxicity of a cyclic octapeptide corresponding to TNF-alpha-(59-66)” (1993).
Bridge positions count the residues as written; N and C are the ends. Peptide text beside a SMILES is read from it.

Columns and labels:
Homo sapiens [1] = species: Homo sapiens; test: Tested for induction of interleukin-1 production from human peripheral blood mononuclear cell (PBMC) of 2x10 e6 cells at 1 ug/mL; type: functional
Homo sapiens [2] = species: Homo sapiens; test: Tested for induction of interleukin-1 production from human monocyte of 1x 10 e5 cells at 10 ug/mL; type: functional
HEp-2 [3] = test: Tested for cytotoxicity index against HEP-2 cell line by MTT method at 1.0 ug/mL concentration; type: functional, Homo sapiens
HeLa [4] = test: Tested for cytotoxicity index against HeLa cell line by MTT method at 1.0 ug/mL concentration; type: functional, Homo sapiens
HeLa [5] = test: Tested for cytotoxicity index against HeLa cell line by MTT method at 0.1 ug/mL concentration; type: functional, Homo sapiens
HEp-2 [6] = test: Tested for cytotoxicity index against HEP-2 cell line by MTT method at 0.1 ug/mL concentration; type: functional, Homo sapiens
Homo sapiens [7] = species: Homo sapiens; test: Tested for induction of interleukin-1 from human peripheral blood mononuclear cell (PBMC) of 2x10 e6 cells at 1 ug/mL; type: functional

CC(C)C[C@@H]1NC(=O)[C@H](CCC(N)=O)NC(=O)[C@@H](N)CC(=O)NCCCC[C@@H](C(=O)NCC(=O)O)NC(=O)[C@H](CO)NC1=O (H-DQLSKG-OH; lactam 1-5)
IL-1 production (Homo sapiens [1]): 579 pg/mL
IL-1 production (Homo sapiens [2]): 1047 pg/mL

COc1cccc2c1C(=O)c1c(O)c3c(c(O)c1C2=O)C[C@@](O)(C(=O)CO)C[C@@H]3O[C@H]1C[C@H](N)[C@H](O)[C@H](C)O1 [DOXORUBICIN]
Cytotoxicity index (HEp-2 [3]): 75.5
Cytotoxicity index (HeLa [4]): 96.6
Cytotoxicity index (HeLa [5]): 50.6
Cytotoxicity index (HEp-2 [6]): 39

H-KGDRLS-OH [TNF-ALPHA]
IL-1 production (Homo sapiens [7]): 741 pg/mL
